# Legend:
# [1] = system: Monographella nivalis (Microdochium nivale); test: Example A6: Monographella nivalis (Microdochium nivale) / liquid culture (foot rot cereals); format: cell-based; settings: read-out: control of Monographella nivalis
# [2] = system: Magnaporthe grisea (Pyricularia oryzae); test: whole plant or invertebrate; format: in vivo; settings: foliar, read-out: control of Magnaporthe grisea
# [3] = system: Puccinia recondita f. sp. tritici; format: in vivo; settings: foliar, wheat leaf disc preventative, inoculated 1 day after application, compared to untreated control
# [4] = system: Pyrenophora teres; test: Example A12: Pyrenophora teres / barley / leaf disc preventative (net blotch); format: in vivo; settings: foliar, inoculated 2 days after application, compared to untreated control
# [5] = system: Glomerella lagenarium (Colletotrichum lagenarium); test: Example A3: Glomerella lagenarium (Colletotrichum lagenarium) / liquid culture (anthracnose); format: cell-based; settings: Colletotrichum orbiculare; read-out: control of Glomerella lagenarium
# [6] = system: Mycosphaerella graminicola (Septoria tritici); test: Example A14: Mycosphaerella graminicola (Septoria tritici) / liquid culture (Septoria blotch); format: cell-based; settings: Zymoseptoria tritici; read-out: control of Mycosphaerella graminicola
SMILES,inhibition of growth at 20 ppm [1],pest or weed control at 200 ppm [2],pest or weed control at 200 ppm [3],pest or weed control at 200 ppm [4],inhibition of growth at 20 ppm [5],inhibition of growth at 20 ppm [6]
"Cc1sc(N(C(=O)Oc2ccccc2)c2cc(F)nc(F)c2)nc1C(=O)NC1CCC1(C)C (stereo not drawn) [X.26, phenyl N-(2,6-difluoro-4-pyridyl)-N-[4-[(2,2-dimethylcyclobutyl)carbamoyl]-5-methyl-thiazol-2-yl]carbamate]",≥ 80%,≥ 80%,–,–,–,–
"COCC(=O)N(c1cc(F)nc(F)c1)c1nc(C(=O)NC2CCC2)c(C)s1 [X.12, N-cyclobutyl-2-[(2,6-difluoro-4-pyridyl)-(2-methoxyacetyl)amino]-5-methyl-thiazole-4-carboxamide]",≥ 80%,≥ 80%,≥ 80%,≥ 80%,–,–
"CC(=O)N(c1cc(F)nc(F)c1)c1nc(C(=O)NC2CCC2)c(C)s1 [X.13, 2-[acetyl-(2,6-difluoro-4-pyridyl)amino]-N-cyclobutyl-5-methyl-thiazole-4-carboxamide]",–,≥ 80%,≥ 80%,–,–,–
"Cc1sc(N(C(=O)C(C)O)c2cc(F)nc(F)c2)nc1C(=O)NC1CCC12CCCC2 (stereo not drawn) [X.05, 2-[(2,6-difluoro-4-pyridyl)-(2-hydroxypropanoyl)amino]-5-methyl-N-spiro[3.4]octan-3-yl-thiazole-4-carboxamide]",≥ 80%,≥ 80%,≥ 80%,–,≥ 80%,≥ 80%
"COc1sc(N(C(C)=O)c2cc(F)nc(F)c2)nc1C(=O)NC1CCC12CCCC2 (stereo not drawn) [X.10, 2-[acetyl-(2,6-difluoro-4-pyridyl)amino]-5-methoxy-N-spiro[3.4]octan-3-yl-thiazole-4-carboxamide]",–,≥ 80%,–,≥ 80%,–,–
"CCOC(=O)OC(C)C(=O)N(c1cc(F)nc(F)c1)c1nc(C(=O)NC2CCC2)c(C)s1 (stereo not drawn) [X.02, [2-[[4-(cyclobutylcarbamoyl)-5-methyl-thiazol-2-yl]-(2,6-difluoro-4-pyridyl)amino]-1-methyl-2-oxo-ethyl] ethyl carbonate]",–,≥ 80%,≥ 80%,–,–,–
"CCN(CC)C(=O)N(c1cc(F)nc(F)c1)c1nc(C(=O)NC2CCC2(C)C)c(C)s1 (stereo not drawn) [X.16, 2-[diethylcarbamoyl-(2,6-difluoro-4-pyridyl)amino]-N-(2,2-dimethylcyclobutyl)-5-methyl-thiazole-4-carboxamide]",≥ 80%,≥ 80%,–,–,≥ 80%,–
"CC(=O)N(c1cc(F)nc(F)c1)c1nc(C(=O)NC2CCC23CCCC3)c(C)s1 (stereo not drawn) [X.37, 2-[acetyl-(2,6-difluoro-4-pyridyl)amino]-5-methyl-N-spiro[3.4] octan-3-yl-thiazole-4-carboxamide]",–,≥ 80%,–,≥ 80%,–,–
"Cc1sc(N(C(=O)c2ccco2)c2cc(F)nc(F)c2)nc1C(=O)NC1CCC1(C)C (stereo not drawn) [X.19, 2-[(2,6-difluoro-4-pyridyl)-(furan-2-carbonyl)amino]-N-(2,2-dimethylcyclobutyl)-5-methyl-thiazole-4-carboxamide]",–,≥ 80%,≥ 80%,–,–,–
"Cc1sc(N(C(=O)c2cccs2)c2cc(F)nc(F)c2)nc1C(=O)NC1CCC1(C)C (stereo not drawn) [X.31, 2-[(2,6-difluoro-4-pyridyl)-(thiophene-2-carbonyl)amino]-N-(2,2-dimethylcyclobutyl)-5-methyl-thiazole-4-carboxamide]",≥ 80%,≥ 80%,–,–,–,–
"COC(=O)N(c1cc(F)nc(F)c1)c1nc(C(=O)NC2CCC2(C)C)c(C)s1 (stereo not drawn) [X.32, methyl N-(2,6-difluoro-4-pyridyl)-N-[4-[(2,2-dimethylcyclobutyl)carbamoyl]-5-methyl-thiazol-2-yl]carbamate]",–,≥ 80%,–,–,–,–
